Drawing on a melting point compilation (Tetko et al.), this text covers melting point for 112 compounds.

What is called melting point is the temperature of the solid-liquid transition.

With `OCc1nccs1`, the melting point lay within 62 to 64 °C.
Next, `Cc1c(C)c(C)c(CC#N)c(C)c1C`: 112 °C; `Cc1ccc(C(=O)/C=C/c2ccc(-c3cccc([N+](=O)[O-])c3)o2)o1`: 160 °C.
On to `CC(C)(C)OC(=O)N1CCN(Cc2cccc(C(=O)O)c2)CC1`, for which the melting point lay in the range of 173 to 175 °C.
Under `COC(=O)c1cc(C)n(C)c1C` stands 117 °C; under `O=C1C=CC(=O)c2c(O)cccc21`, 162 °C.
Under `Cc1ccc(Sc2ccc(C(=O)c3ccccc3)cc2)cc1` stands 73 to 87 °C.
`CC12CCC(C(COC(=O)c3ccccc3)C1=O)C2(C)C` (configuration not stated): the melting point worked out at 96 °C.
Under `CC(=O)NC1=NC(=O)C(=Cc2cc(=O)c3ccccc3o2)N1C` stands 244 to 246 °C; under `COC(=O)C1(C(=O)OC)Cc2cccc(OC)c2C(=O)O1`, 88.7 to 89.7 °C.
Next, `Cc1cccc(C)c1NC(=O)CCl`: 148 °C; `Nc1ccnc(Cl)c1`: 93 °C; `COc1ccc(C(=O)CCl)cc1`: 98 to 100 °C.
As for `CCOC(=O)c1sc(N)c(C(=O)OCC)c1C`, the melting point worked out at 115 °C.
Next, `CCCCC1C(=O)NC(=O)N(C2CCCCC2)C1=O` (configuration not stated): 84 °C.
Next, `Clc1cc(Cl)c(I)c(Cl)c1`: 56 to 58 °C; `Oc1ccc(F)c(Cl)c1`: 41 °C; `O=C(O)C=Cc1ccc2c(c1)OCO2`: 242 to 244 °C.
Under `COP(=S)(OC)Oc1ccc([N+](=O)[O-])cc1Cl` stands 52.5 °C; under `N#Cc1ccc(N2CCCC2)cn1`, 106 to 108 °C.
For the compound `CO[C@]12C(=O)CCc3cccc(c31)Oc1ccc3ccccc3c12`, the melting point was 154 °C.
Under `C=CCOC1(C#Cc2ccccc2)Cc2ccccc21` (configuration not stated) stands 50 °C; under `S=C1SCCS1`, 35 °C; under `CCCCCOc1ccc(/N=N/c2ccc(CCCC)cc2)cc1Cl`, 41.5 °C.
Next, `Cc1ccc(S(=O)(=O)NCCCN(CCCN(CCCNS(=O)(=O)c2ccc(C)cc2)S(=O)(=O)c2ccc(C)cc2)S(=O)(=O)c2ccc(C)cc2)cc1`: 126 °C; `O=CNCC(=O)O`: 149 °C.
Next, `Cc1cc(C)c(CC(=O)CSC#N)c(C)c1`: 125 to 126 °C.
`CCC1CC(OP(=O)(O)O)CC(C)(C)N1O` (configuration not stated) came in with a melting point of 270 °C.
Compound `O=C(O)c1ccccc1C(=O)Nc1cccc2ccccc12` showed a melting point of 185 °C.
Regarding `Nn1c(Cc2ccc(Cl)cc2)n[nH]c1=O`, the melting point was 181 °C.
Next, `CCOP(=S)(OCC)Oc1ccc(=O)n(-c2ccccc2)n1`: 56.2 °C.
Under `O=C(/C(=N/O)c1ccccc1)c1ccc2c3c(cccc13)CC2` stands 204 °C; under `NC1=NC(=O)C(c2ccccc2)O1` (configuration not stated), 256 °C.
`CCC1(O)c2ccccc2C1C` (configuration not stated): the melting point was determined as 52 °C.
Under `Nc1nc(-c2ccc3ccccc3c2)cs1` stands 155 °C; under `CC(=O)C12OC1CC1C3CCC4=CC(=O)CCC4(C)C3C(O)CC12C` (configuration not stated), 206 °C; under `O=C(Cl)c1cc(-c2ccccc2)c(C(F)(F)F)s1`, 48 to 51 °C.
As to `O=[N+]([O-])c1cccc(C=NNc2ccccc2)c1`, the melting point stood at 123 °C.
Next, `CC(C)(C)OOC(C)(C)CCC(C)(C)OOC(C)(C)C`: 8 °C.
For the compound `CCOC(=O)c1cc(-c2ccc(C)cc2)oc1C`, the melting point was in the range of 82 to 83 °C.
Next, `Cc1cc(C(c2ccc(C)o2)c2ccc(C)o2)c(O)c([N+](=O)[O-])c1`: 93 °C; `O=C(O)c1cc(Br)ccc1Cl`: 160 °C.
Under `Cc1cc(=O)oc(C)c1C(=O)O` stands 154 to 156 °C; under `COc1ccccc1N=Nc1ccccc1`, 41 °C; under `COc1ccc(C2(C)CCc3oc4ccccc4c3-c3oc(C)cc32)cc1` (configuration not stated), 145 °C.
Next, `CC(N)C(O)c1ccccc1` (configuration not stated): 192 °C; `CNC1CCC2(C)C(CCC3C2CCC2(C)C3CCC2C(C)N(C)C)C1` (configuration not stated): 172 °C; `COc1ccc(OC)c(N=C=O)c1`: 40 °C.
As to `O=C(O)C=C(F)C(F)(F)C(F)(F)C(F)(F)C(F)(F)C(F)(F)C(F)(F)C(F)(F)F`, the melting point is 105 °C.
Next, `C=CC(=O)OCCOCC`: -47 °C; `c1cnc(-c2noc(C3CCNCC3)n2)cn1`: 87 to 89 °C.
Under `CCOc1ccc2[nH]c(=S)sc2c1` stands 199 °C.
Under `Cc1cccc(O)c1C(=O)O` stands 173 °C.
In turn, `CN1C(=O)CCS(=O)(=O)C1c1ccc(Cl)cc1` (configuration not stated) displayed a melting point of 116 °C.
For the compound `N#CCc1ccc(OCc2ccccc2)c(OCc2ccccc2)c1`, the melting point came to 80 °C.
Next, `CNc1ccc2cc3ccc4c(c3nc2c1CO)COCN4`: 105 °C; `ClCc1ccc(-c2nccs2)cc1`: 67 to 69 °C.
`Nc1ccc(S(=O)(=O)c2ccc(NC(=O)CCC(=O)O)cc2)cc1` had a melting point of 157 °C.
In the case of `NNC(=O)C1SCCN1S(=O)(=O)c1ccc(Cl)cc1` (configuration not stated), the melting point fell in the range of 200 to 201 °C.
Under `Clc1nc(Cl)nc(Cl)n1` stands 154 °C; under `CCCCCCCCOc1ccc(NC(=O)c2ccc(CC)cc2)cc1`, 143 °C.
Under `Cc1ccc(C(=O)C(C)CN2CCCCC2)cc1` (configuration not stated) stands 176 °C; under `Cc1nc(-c2ccc(C=O)cc2)cs1`, 101 to 102 °C; under `ON=C1CCCSC1`, 103 to 104 °C.
Under `CN(C)S(=O)(=O)Cl` stands -13 °C.
In the case of `CC(=O)c1ccnc(Cl)c1`, the melting point was in the range of 36.5 to 39 °C.
Under `O=C(O)c1ccc(O)c(O)c1O` stands 221 °C.
Next, `Cc1ccc2ccccc2c1[N+](=O)[O-]`: 81.5 °C; `NNC(=O)c1ccc(Br)cc1Cl`: 173 to 175 °C.
Next, `CC(C)n1cc(C#N)c(=O)n(Cc2ccccc2)c1=O`: 151 to 154 °C; `Cc1cc2ccccc2nc1C`: 68.5 °C.
For `Oc1cc(Br)ccn1`, the melting point is 203 °C.
Under `CSc1nc2[nH]c(=S)n(Cc3ccccc3)c(=O)c2n1C` stands 231 to 233 °C; under `CCCCc1ccccc1O`, -20 °C; under `N#Cc1ccc2nonc2c1`, 86 to 88 °C.
Under `Cn1c(=O)oc(=O)c2ccccc21` stands 165 °C; under `O=Cc1cc2c(cc1Cl)OCO2`, 116 °C; under `CCOC=C(C#N)C(=O)OCC`, 49.5 °C.
Next, `O=C1OC(=O)c2cc(Br)ccc21`: 107 °C; `O=C(CBr)c1cc(C(=O)CBr)cc(C(=O)CBr)c1`: 111 °C.
Compound `Brc1ccc2ncsc2c1` had a melting point of 53 to 54 °C.
Next, `CC(C)OC(=O)C1(S(=O)(=O)c2ccc([N+](=O)[O-])cc2)CC1`: 123 °C; `Cc1cc([N+]([O-])=Nc2ccccc2)ccc1[N+]([O-])=Nc1ccccc1`: 100 °C; `Fc1ccc(-c2n[nH]c(=S)n2-n2cccc2)cc1`: 234 °C.
Under `Nc1cccc2c1Cc1ccccc1-2` stands 126 °C; under `COC(=O)c1cc(C)[nH]n1`, 82 °C; under `CN(C)CCOc1ccccc1N`, 37 to 40 °C.
In turn, `Cn1c2c(c3ccccc31)CCCC2` had a melting point of 52 °C.
Under `O=C(O)c1ncccc1N1CCCCC1` stands 102 to 109 °C; under `COC(=O)c1cc2c(OC)cccc2[nH]1`, 140 to 142 °C; under `OCCNc1nccnc1Cl`, 54 to 58 °C.
Under `S=c1[nH]ccn1-c1ccc(Br)cc1` stands 244 to 246 °C; under `CC1=C(C(=O)OCc2ccccc2)C(c2ccc3ccccc3c2)NC(=O)N1C` (configuration not stated), 150 °C.
For the compound `COc1cc(C=C(C(=O)O)C(=Cc2cc(OC)c(OC)c(OC)c2)C(=O)O)cc(OC)c1OC`, the melting point worked out at 229 °C.
Under `O=C=Nc1ccc2sccc2c1` stands 58 °C; under `N#CC(C#N)=C(SCc1ccccc1)SCc1ccccc1`, 82 °C.
Under `CC(=O)c1c(-c2ccccc2)cc2ccccc2c1O` stands 55 °C; under `CC1(C)C2CCC1(C)C(NC(=O)c1ccc([N+](=O)[O-])cc1)C2NC(=O)c1ccc([N+](=O)[O-])cc1` (configuration not stated), 170 °C; under `OCc1cccc(Cn2cncn2)c1`, 56 to 59 °C.
Take `CC1=CC(O)c2ccccc21` (configuration not stated): the melting point amounted to 69 °C.
Next, `CCOC(=O)c1cc(C)n(Cn2nc(C(=O)OCC)cc2C)n1`: 130 °C.
Under `COC(=O)c1ccccc1OC1OC(COC2OCC(O)C(O)C2O)C(O)C(O)C1O` (configuration not stated) stands 180 °C; under `O=C(O)c1coc2ccccc2c1=O`, 201 °C.
For `NC(=O)CSSCC(N)=O`, the melting point was found to be 162 °C.
Under `CCS(=O)CC` stands 14 °C; under `NCc1ccccc1-n1cccc1`, 156 to 157 °C; under `N#CCCOCCC#N`, -26.3 °C.
Next, `Cc1ccc(NC(=O)C(C(F)(F)F)C(F)(F)F)cc1C`: 189 °C; `Cc1cc(Br)ccc1C(=O)O`: 183 °C; `O=C(c1cccs1)c1noc(-c2cccc3ccccc23)c1S(=O)(=O)c1ccccc1`: 124 °C.
Under `C#CCO` stands -51.8 °C; under `Clc1ccc(C=NCCN=Cc2ccc(Cl)cc2)cc1`, 125 °C.
